# Tested on: THP-1 viability, CellTiter-Glo luminescence, 72 h
# Experiment: viability loss in THP-1 monocytes – THP-1 cells, cytotoxicity control for Vif-APOBEC3G degradation inhibitor project, dose response (AID 1117359)
row,SMILES,CC50
1,O=[N+]([O-])c1c(NCCO)cc(Sc2nc3ccccc3s2)c2nonc12,17.9 µM
2,COC(C(=O)C(O)C(C)O)C1Cc2cc3cc(OC4CC(OC5CC(O)C(O)C(C)O5)C(O)C(C)O4)c(C)c(O)c3c(O)c2C(=O)C1OC1CC(OC2CC(OC3CC(O)C(OC)C(C)O3)C(O)C(C)O2)C(O)C(C)O1 (stereo not drawn),< 0.08 µM
3,CCN=c1scc(C)n1/N=C/c1ccc(O)c(O)c1O,19.9 µM
4,Oc1ccc(N=Cc2ccc(O)c(O)c2)cc1,13 µM
5,CCOc1cc(CNc2ccc(O)cc2)ccc1OCc1ccc(Cl)cc1Cl,8.81 µM
6,CCOC(=O)C(C(=O)OCC)c1cc(Br)c2noc3c2c1C(=O)c1ccccc1-3,9.78 µM
7,Oc1ccc(/C=N/NP(=S)(c2ccccc2)c2ccccc2)c(O)c1O,38.3 µM
8,CSc1nc(N(CCO)CCO)c2sc3nc(-c4ccco4)c4c(c3c2n1)CCC4,19.8 µM

# Reference: PubChem BioAssay AID1117359 (Southern Research Institute, 2015)
